From patent US9808527B2, “Methods and compositions for treating HIV infections” (priority 2006, dated 2017)
Like-named read-outs stand apart in the source and are kept apart here.

Assays:
Type in all cases: cell-based
[1] = tested on: HIV-1MDR/C (X4); assay: microbe, parasite or virus in culture; settings: for IC50: Human immunodeficiency virus 1, read-out: IC50 against HIV-1MDR/C (X4); for fold change of IC50, HIV-1MDR/C: compared to wild-type HIV-1ERS104pre
Experimental: (§1) Drug susceptibility assay. The susceptibility of HIV-1LAI, HIV-2EHO, HIV-2ROD, to various drugs and the cytotoxicity of those drugs was determined by using the MTT assay. Briefly, MT-2 cells (2×10^4/mL) were exposed to 100 TCID50s (50% tissue culture infectious doses) of HIV-1LAI, HIV-2EHO, or HIV-2ROD in the presence or absence of various concentrations of drugs in 96-well microculture plates and were incubated at 37° C. for 7 days. After 100 μL of the medium was removed from each well, 3-(4,5-dimethylthiazol-2-yl)-2,5-diphenyltetrazolium bromide (MTT) solution (10 μL, 7.5 mg/mL in phosphate-buffered saline) was added to each well in the plate, followed by incubation at 37° C. for 4 hours. […] All assays were performed in duplicate or triplicate. To determine the sensitivity of HIV-1Ba-L, HIV-1ERS104 pre, and clinical multi-drug-resistant HIV-1 isolates and different subtypes of HIV-1 isolates to drugs, phytohemagglutinin-activated peripheral blood mononuclear cells (PHA-PBMs; 10^6/mL) were exposed to 50 TCID50 (50% tissue infectious dose) of each HIV-1 isolate and cultured in the presence or absence of various concentrations of drugs in 10-fold serial dilutions in 96-well microtiter culture plates. To determine the drug susceptibility of certain laboratory HIV-1 strains (HIV-1NL4-3), MT-4 cells were used as target cells. MT-4 cells (10^5/mL) were exposed to 100 TCID50 of wild type HIV-1NL4-3 and PI-resistant HIV-1NL4-3 in the presence or absence of various concentrations of drugs and were incubated at 37° C. On day 7 of culture, the supernatant was harvested and the amount of p24 Gag protein was determined by using a fully automated chemiluminescent enzyme immunoassay system (Lumipulse F; Fujirebio Inc., Tokyo, Japan) (22). […] All assays were performed in duplicate or triplicate.
(§2) HIV-1ERS104pre served as a source of wild-type HIV-1. The IC50 values were determined by using PHA-PBMs as target cells and the inhibition of p24 Gag protein production by each drug was used as an endpoint.

[2] = tested on: HIV-1MDR/TM (X4); assay: microbe, parasite or virus in culture; settings: for IC50: Human immunodeficiency virus 1, read-out: IC50 against HIV-1MDR/TM (X4); for fold change of IC50, HIV-1MDR/TM: compared to wild-type HIV-1ERS104pre
Experimental: as §1, §2

[3] = tested on: HIV-1MDR/B (X4); assay: microbe, parasite or virus in culture; settings: for IC50: Human immunodeficiency virus 1, read-out: IC50 against HIV-1MDR/B (X4); for fold change of IC50, HIV-1MDR/B: compared to wild-type HIV-1ERS104pre
Experimental: as §1, §2

[4] = tested on: HIV-1MDR/G (X4); assay: microbe, parasite or virus in culture; settings: for IC50: Human immunodeficiency virus 1, read-out: IC50 against HIV-1MDR/G (X4); for fold change of IC50, HIV-1MDR/G: compared to wild-type HIV-1ERS104pre
Experimental: as §1, §2

[5] = tested on: HIV-1MDR/MM (R5); assay: microbe, parasite or virus in culture; settings: for IC50: Human immunodeficiency virus 1, read-out: IC50 against HIV-1MDR/MM (R5); for fold change of IC50, HIV-1MDR/MM: compared to wild-type HIV-1ERS104pre
Experimental: as §1, §2

[6] = tested on: HIV-1MDR/JSL (R5); assay: microbe, parasite or virus in culture; settings: for IC50: Human immunodeficiency virus 1, read-out: IC50 against HIV-1MDR/JSL (R5); for fold change of IC50, HIV-1MDR/JSL: compared to wild-type HIV-1ERS104pre
Experimental: as §1, §2

[7] = tested on: HIV-1ERS104pre (wild-type: X4); assay: p24 Gag production inhibition, PHA-PBMs, wild-type clinical isolate
Experimental: as §1
The amino acid substitutions identified in the protease-encoding region of HIV-1ERS104pre, HIV-1TM, HIV-1MM, HIV-1JSL, HIV-1B, HIV-1C, HIV-1G compared to the consensus type B sequence cited from the Los Alamos database include L63P; L10I, K14R, R41K, M46L, I54V, L63P, A71V, V82A, L90M; I93L; L10I, K43T, M46L, I54V, L63P, A71V, V82A, L90M, Q92K; L10I, L24I, I33F, E35D, M36I, N37S, M46L, I54V, R57K, I62V, L63P, A71V, G73S, V82A; L10I, K14R, L33I, M36I, M46I, F53I, K55R, I62V, L63P, A71V, G73S, V82A, L90M, I93L; L10I, I15V, K20R, L24I, M36I, M46L, I54V, I62V, L63P, K70Q, V82A, L89M; and L10I, V11I, T12E, I15V, L19I, R41K, M46L, L63P, A71T, V82A, L90M, respectively. HIV-1ERS104pre served as a source of wild-type HIV-1. The IC50 values were determined by using PHA-PBMs as target cells and the inhibition of p24 Gag protein production by each drug was used as an endpoint. The numbers in parentheses represent the fold changes of IC50 values for each isolate compared to the IC50 values for wild-type HIV-1ERS104pre. All assays were conducted in duplicate or triplicate, and the data shown represent mean values (±1 standard deviations) derived from the results of three independent experiments.

[8] = Human immunodeficiency virus 1, PHA-PBMs, p24 Gag production, read-out: IC50 against HIV-1ERS104pre (wild-type: X4)
[9] = Human immunodeficiency virus 1, read-out: IC50 against HIV-1ERS104pre (wild-type: X4)

Compound | IC50 [1] [nM] | fold change of IC50, HIV-1MDR/C [1] | IC50 [2] [nM] | fold change of IC50, HIV-1MDR/TM [2] | IC50 [3] [nM] | fold change of IC50, HIV-1MDR/B [3] | IC50 [4] [nM] | fold change of IC50, HIV-1MDR/G [4] | IC50 [5] [nM] | fold change of IC50, HIV-1MDR/MM [5] | IC50 [6] [nM] | fold change of IC50, HIV-1MDR/JSL [6] | IC50 [7, 8] [nM] | IC50 [7, 9] [nM]
CC(C)CN(CC(O)C(Cc1ccccc1)NC(=O)OC1COC2OCCC12)S(=O)(=O)c1ccc2c(c1)OCO2 (centres unmarked) [GRL-98065] | 2.7 ± 0.3 | 5 | 3.2 ± 0.6 | 6 | 3.9 ± 0.5 | 8 | 3.4 ± 0.3 | 7 | 3.8 ± 0.6 | 8 | 6 | 12 |  | 
CC(C)(C)NC(=O)[C@@H]1CN(Cc2cccnc2)CCN1C[C@@H](O)C[C@@H](Cc1ccccc1)C(=O)N[C@H]1c2ccccc2C[C@H]1O [IDV, indinavir] | > 1000 |  | > 1000 |  | > 1000 |  | 640 ± 110 |  | > 1000 |  | > 1000 |  | 24 ± 8 | 
CC(C)(C)NC(=O)[C@@H]1C[C@@H]2CCCC[C@@H]2CN1C[C@@H](O)[C@H](Cc1ccccc1)NC(=O)[C@H](CC(N)=O)NC(=O)c1ccc2ccccc2n1 [SQV, Saquinavir] | 35 ± 4 | 4 | 180 ± 50 | 23 | 270 ± 60 | 34 | 33 ± 5 | 4 | 140 ± 40 | 18 | 290 ± 50 | 36 |  | 8 ± 3
COC(=O)N[C@H](C(=O)N[C@@H](Cc1ccccc1)[C@@H](O)CN(Cc1ccc(-c2ccccn2)cc1)NC(=O)[C@@H](NC(=O)OC)C(C)(C)C)C(C)(C)C [ATV, Atazanavir] | 21 ± 6 | 6 | 38 ± 9 | 10 | 250 ± 3 | 66 | 32 ± 2 | 8 | 45 ± 0.1 | 12 | 540 ± 200 | 142 |  | 3.8 ± 0.4
Cc1cccc(C)c1OCC(=O)N[C@@H](Cc1ccccc1)[C@@H](O)C[C@H](Cc1ccccc1)NC(=O)[C@H](C(C)C)N1CCCNC1=O [LPV, lopinavir] |  |  |  |  |  |  |  |  |  |  |  |  | 7 ± 1 | 
CC(C)CN(C[C@@H](O)[C@H](Cc1ccccc1)NC(=O)O[C@H]1CCOC1)S(=O)(=O)c1ccc(N)cc1 [APV, Amprenavir] | 250 ± 50 |  | 300 ± 40 |  | 360 ± 90 |  | 320 ± 20 |  | 480 ± 90 |  | 430 ± 50 |  | 29 ± 5 | 
